According to patent US20040067991A1, “Tetrahydrobenzothiazole analogues as neuroprotective agents” (priority 2003, published 2004):
Entries after “also recorded” stand apart in the source; their conditions may differ. Counter-ions that a name gives are not always drawn.

Assays:
PC12 cells = test: Protection of PC12 cells against camptothecin-induced cell death (BCECF AM fluorescence); type: cell-based; settings: read-out: PD50; concentration of compounds required to induce 50% protection (PC50) of PC12 cells from camptothecin-induced cell-death; 6 h preincubation with compound, camptothecin 40 μM for 24 h
Procedure: The 2-amino-4,5,6,7-tetrahydrobenzothiazole hydrogen iodide, 1-(4-methylphenyl)-2-(4,5,6,7-tetrahydro-2-imino-3(2H)-benzothiazolyl)-ethanone hydrobromide, and analogues were tested for their ability to protect PC12 cells against the toxic agent, camptothecin. PC12 cells were cultured in RPMI1640 media containing 10% horse serum and 5% fetal calf serum (37° C., pH 7.4) until confluent. Thereafter, 2.2×10^4 cells per mL were added to each trough of a 96 well plate (approximately 6,270 cells per well 285 μL) and were left to grow for 12 h. The media then was removed and was replaced by media with and without the compounds to be tested, including precursor, PFTα, and numerous analogues (concentration 100-400 nM, prepared in DMSO to a final dilution of 0.4%, 8 wells per concentration). Following 6 h of incubation, camptothecin (40 μM) was added to 4 of each 8 wells, and the cells were incubated for a further 24 h. Cells then were gently washed twice with phosphate buffered saline (PBS: 0.1 M, 37° C., pH 7.4) and were incubated in PBS containing the live-cell indicator dye, 2′,7′-bis(2-carboxyethey)-5-6-carboxyfluorescein AM ester (BCECF AM: 5 μM) (Molecular Probes, CA), for 45 min in minimal light. This fluorescent dye was taken up and retained by live cells. Finally, the cells were washed twice in PBS and their fluorescence then was quantified (excitation: 490 nm, emission: 535 nm, Perkin Elmer HTS 7000).
PC12 cell survival was also assessed. One hundred percent cell survival was determined from cells incubated in the absence of both any compound and camptothecin. […] Compound-induced toxicity was assessed by comparing cells treated with compound at various concentrations in the absence of camptothecin with cells incubated in the absence of both compound and camptothecin. […] Compound-induced cellular protection was assessed by comparing cells incubated with camptothecin with cells incubated with camptothecin in the presence of compound, in a concentration-dependent manner.

rat hippocampal neurons = test: Neuronal survival assay in cultured hippocampal neurons treated with camptothecin or etoposide; type: cell-based
Procedure: 2-amino-4,5,6,7-tetrahydrobenzothiazole hydrogen and 1-(4-methylphenyl)-2-(4,5,6,7-tetrahydro-2-imino-3(2H)-benzothiazolyl)-ethanone hydrobromide and their analogues were assessed for their ability to protect rat hippocampal cells in culture from camptothecin ([…]).
Dissociated hippocampal cell cultures were established from embryonic day 18 Sprague-Dawley rats (Harlan, Inc.) as described previously. […] 77:220-28. Cells were grown in polyethyleneimine-coated plastic dishes or 22 m^2 glass coverslips, and incubated in Neurobasal medium containing B27 supplements, 2 mM L-glutamine, 25 mg/ml gentamycin, 1 mM Hepes (Gibco BRL) and 0.001% gentamicin sulfate. All experiments were performed using 9-10 day-old cultures. Camptothecin and etoposide (Signia) were prepared as 500× stocks in DMSO. Neuron survival was quantified by established methods. […] Briefly, viable neurons in premarked fields (10× objective) were counted before experimental treatment and at specified time points thereafter. Neurons with intact neurites of uniform diameter and soma with a smooth round appearance were considered viable. In contrast neurons with fragmented neurites and vacuolated soma were considered non-viable.

[1] = system: primary hippocampal neurons; test: Neuronal survival of primary hippocampal neurons after excitotoxic insult (glutamate); type: cell-based, rat
Procedure: Dissociated hippocampal cell cultures were established from embryonic day 18 Sprague-Dawley rats (Harlan, Inc.) as described previously. See Culmsee et al. (2001) J. Neurochem. 77:220-28. Cells were grown in polyethyleneimine-coated plastic dishes or 22 m^2 glass coverslips, and incubated in Neurobasal medium containing B27 supplements, 2 mM L-glutamine, 25 mg/ml gentamycin, 1 mM Hepes (Gibco BRL) and 0.001% gentamicin sulfate. All experiments were performed using 9-10 day-old cultures. Camptothecin and etoposide (Signia) were prepared as 500× stocks in DMSO. Neuron survival was quantified by established methods. See Mattson et al. (1993) Neuron 10:243-54. Briefly, viable neurons in premarked fields (10× objective) were counted before experimental treatment and at specified time points thereafter. Neurons with intact neurites of uniform diameter and soma with a smooth round appearance were considered viable. In contrast neurons with fragmented neurites and vacuolated soma were considered non-viable.
Primary hippocampal neurons were prepared and cultured as described above. Cultures were pretreated with compounds 14 and 1 (0.04 μM) 1 h before exposure to glutamate (20 μM) in Locke's medium. The percentage of neuronal survival 24 h after the onset of insult is given as mean values±SD.

caspase activation = test: Caspase activation; type: cell-based

N=c1sc2c(n1Cc1ccccc1)CCCC2 [Compound 14, 3-(phenylmethyl)-4,5,6,7-tetrahydro-2(3H)-benzothiazolimine Hydrobromide]
EC50 (PC12 cells): 741 nM
neuroprotection of hippocampal neurons against camptothecin (in words) (rat hippocampal neurons; 100 nM, added 1 h before camptothecin 5 μM): significant neuroprotection
neuroprotection of hippocampal neurons against etoposide (in words) (rat hippocampal neurons; added 1 h before etoposide 2.5 μM): more active than compound PFTα
protection of primary hippocampal cells against death induced by camptothecin and etoposide (in words) (rat hippocampal neurons; camptothecin 5 μM, etoposide 2.5 μM, 24 h, Hydrobromide): had neuroprotection; also recorded: highly potency
neuronal survival (rat hippocampal neurons; pretreated with 100 nM of analogue, then camptothecin (5 μM), 24 h): 61%
protection of hippocampal neurons against glutamate-induced death (in words) ([1]; 0.04 μM 1 h before glutamate (20 μM), survival at 24 h, Hydrobromide): protect; also recorded: at least partially reversed
neuron survival increased ([1]; neurons pretreated with compound, death induced by glutamate): 133%
caspase activation (in words) (caspase activation): suppress caspase activation
